Drawing on patent publication US8859541B2, “6-alkynylpyridines” (Boehringer Ingelheim International GmbH, priority 2012, dated 2014), this text covers IC50 for 14 molecules.

One assay deals with T1, XIAP BIR3 (Homo sapiens, UniProt P98170).
T1 construct: covering amino acids 241 to 356; XIAP BIR3; made in house; host or cells: E. coli
Put plainly: XIAP BIR3 binding assay (DELFIA), displacement of SMAC peptide. As to conditions: GST-fusion BIR3 domain (aa 241 to 356) 10 nM, SMAC peptide 10 nM; activity of the (S)-isomers. The procedure, abridged:
(§1)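 Each BIR3 domain (10 nM) incubated with biotinylated N-terminal SMAC peptide (10 nM) and compound for 1 h at room temp in Tris/NaCl buffer with BSA, DTT and Triton X-100. Captured on streptavidin plates; bound BIR3 detected by Eu-labelled anti-GST time-resolved fluorescence, giving IC50 values.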

The target of the next assay is T2, cIAP1 BIR3 (Homo sapiens, UniProt Q13490).
T2 construct: covering amino acids 256 to 363; cIAP1 BIR3; made in house; host or cells: E. coli
Put plainly: cIAP1 BIR3 binding assay (DELFIA), displacement of SMAC peptide. Particulars: GST-fusion BIR3 domain (aa 256 to 363) 10 nM, SMAC peptide 10 nM; activity of the (S)-isomers. The procedure, abridged:
as §1

T1 sequence (P98170 241-356): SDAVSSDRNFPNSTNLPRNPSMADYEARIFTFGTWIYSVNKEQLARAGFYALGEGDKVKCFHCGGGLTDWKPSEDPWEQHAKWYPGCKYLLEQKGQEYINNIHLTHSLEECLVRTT
T2 sequence (Q13490 256-363): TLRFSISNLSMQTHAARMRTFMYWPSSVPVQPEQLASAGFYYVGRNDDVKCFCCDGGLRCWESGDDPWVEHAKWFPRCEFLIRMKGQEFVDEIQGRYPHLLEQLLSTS

As for `CC(N)C(=O)Nc1cccc(C#Cc2ccc3cc[nH]c3c2)n1` (stereo not shown) [Example 234, 2-amino-N-[6-[2-(1H-indol-6-yl)ethynyl]pyridin-2-yl]propanamide], the values for the IC50 at XIAP BIR3 and at cIAP1 BIR3 were 2730 nM and 1230 nM, respectively.
For `CNC(C)C(=O)Nc1ccc(-c2c(C)nc3ccccn23)c(C#Cc2ccccc2)n1` (stereo not shown) [Example 174, 2-(methylamino)-N-[5-(2-methyl-imidazo[1,2-a]pyridin-3-yl)-6-(2-phenylethynyl)pyridin-2-yl]-propanamide], in that order: 51 nM and 1 nM.
For `CNC(C)C(=O)Nc1ccc(-c2c(C)nc3ccccn23)c(C#Cc2cc(C)nc3c(F)cccc23)n1` (stereo not shown) [Example 92, N-[6-[2-(8-fluoro-2-methylquinolin-4-yl)ethynyl]-5-(2-methylimidazo[1,2-a]pyridin-3-yl)pyridin-2-yl]-2-(methyl-amino)propanamide], in that order: 172 nM and 1 nM.
Taken in the same sequence, the figures for `CNC(C)C(=O)Nc1ccc(-c2c(C)nc3ccccn23)c(C#Cc2ccc(-c3ccon3)cc2)n1` (stereo not shown) [Example 34, 2-(methylamino)-N-[5-(2-methylimidazo[1,2-a]pyridin-3-yl)-6-[2-[4-(1,2-oxazol-3-yl)-phenyl]ethynyl]pyridin-2-yl]-propanamide] were 279 nM and 1 nM.
Regarding `CNC(C)C(=O)Nc1ccc(-c2c(-c3ccncc3)nc3cc(C)ccn23)c(C#Cc2ccc3c(ccc(=O)n3C)c2)n1` (stereo not shown) [Example 81, 2-(methylamino)-N-[6-[2-(1-methyl-2-oxoquinolin-6-yl)-ethynyl]-5-(7-methyl-2-pyridin-4-ylimidazo[1,2-a]pyridin-3-yl)-pyridin-2-yl]propanamide], the IC50 at XIAP BIR3 is 253 nM; on cIAP1 BIR3, 1 nM.
For `CNC(C)C(=O)Nc1ccc(-c2cncc(C)c2)c(C#Cc2ccccc2)n1` (stereo not shown) [Example 127, 2-(methylamino)-N-[5-(5-methylpyridin-3-yl)-6-(2-phenyl-ethynyl)pyridin-2-yl]propanamide], the IC50 stood at 128 nM on XIAP BIR3 and 21 nM at cIAP1 BIR3.
For `CNC(C)C(=O)Nc1ccc(-c2cc(F)cc(C(=O)OC)c2)c(C#Cc2ccccc2)n1` (stereo not shown) [Example 132, methyl 3-fluoro-5-[6-[[2-(methyl-amino)propanoyl]amino]-2-(2-phenylethynyl)pyridin-3-yl]-benzoate], in that order: 326 nM and 97 nM.
Turning to `CNC(C)C(=O)Nc1ccc(-c2c(C)nc3ccccn23)c(C#Cc2ccnc3c(F)cccc23)n1` (stereo not shown) [Example 93, N-[6-[2-(8-fluoroquinolin-4-yl)-ethynyl]-5-(2-methyl-imidazo[1,2-a]pyridin-3-yl)-pyridin-2-yl]-2-(methylamino)-propanamide], the results for the half-maximal inhibitory concentration (IC50) on XIAP BIR3 and on cIAP1 BIR3 were 198 nM and 1 nM, respectively.
Turning to `CNC(C)C(=O)Nc1ccc(-c2c(C)nc3ccccn23)c(C#Cc2ccc3c(c2)CCO3)n1` (stereo not shown) [Example 69, N-[6-[2-(2,3-dihydro-1-benzofuran-5-yl)ethynyl]-5-(2-methylimidazo[1,2-a]pyridin-3-yl)pyridin-2-yl]-2-(methyl-amino)propanamide], the IC50 at XIAP BIR3 is 110 nM; on cIAP1 BIR3 it was 2 nM.
Regarding `CNC(C)C(=O)Nc1ccc(-c2c(-c3ccncc3)nc3cc(C)ccn23)c(C#Cc2ccc(F)c3ncccc23)n1` (stereo not shown) [Example 78, N-[6-[2-(8-fluoroquinolin-5-yl)-ethynyl]-5-(7-methyl-2-pyridin-4-ylimidazo[1,2-a]pyridin-3-yl)-pyridin-2-yl]-2-(methylamino)-propanamide], the IC50 on XIAP BIR3 turned out to be 47 nM; at cIAP1 BIR3, 2 nM.
Regarding `Cc1ccccc1-c1ccc(NC(=O)C(C)N)nc1C#Cc1ccccc1` (stereo not shown) [Example 108, 2-amino-N-[5-(2-methylphenyl)-6-(2-phenylethynyl)pyridin-2-yl]-propanamide], the values for the 50% inhibitory concentration (IC50) on XIAP BIR3 and on cIAP1 BIR3 were 1610 nM and 175 nM, respectively.
On to `CNC(C)C(=O)Nc1ccc(-c2c(C)nc3ccccn23)c(C#Cc2cnc3ccccn23)n1` (stereo not shown) [Example 60, N-[6-(2-imidazo[1,2-a]pyridin-3-ylethynyl)-5-(2-methyl-imidazo[1,2-a]pyridin-3-yl)-pyridin-2-yl]-2-(methylamino)-propanamide], for which the IC50 turned out to be 184 nM on XIAP BIR3 and 2 nM on cIAP1 BIR3.
For the molecule `CCOc1ccc(-c2ccc(NC(=O)C(C)NC)nc2C#Cc2ccccc2)cn1` (stereo not shown) [Example 125, N-[5-(6-ethoxypyridin-3-yl)-6-(2-phenylethynyl)pyridin-2-yl]-2-(methylamino)propanamide], the half-inhibitory concentration (IC50) on XIAP BIR3 is 580 nM; at cIAP1 BIR3 it was 131 nM.
In the case of `CNC(C)C(=O)Nc1ccc(-c2cc(C(=O)OC)cc(C(=O)OC)c2)c(C#Cc2ccccc2)n1` (stereo not shown) [Example 176, dimethyl 5-[6-[[2-(methylamino)-propanoyl]amino]-2-(2-phenyl-ethynyl)pyridin-3-yl]benzene-1,3-dicarboxylate], the IC50 on XIAP BIR3 turned out to be 50 nM; at cIAP1 BIR3, 23 nM.
